# Results published in patent US8975234B2, “Anti-bacterial infection, inflammation, and leukemia composition and use thereof” (priority 2011, dated 2015).
# Key:
# [1] = test system: Heme oxygenase-1 (HO-1) in RAW264.7 cells; assay: Western blot analysis of Heme oxygenase-1 (HO-1); format: cell-based, mouse; conditions: 25 or 50 μM with LPS, 24 hours
# Description: The murine macrophage RAW264.7 cells were plated in 6 cm cell dishes at a seeding density of 5×10^6 cells/mL and incubated overnight. After overnight incubation, cells were treated with different concentrations of Tellimagrandin II (10, 25 and 50 μM) and LPS and incubated for 24 hours. Cells were washed twice with PBS, scraped and lysed on ice in RIPA buffer, and proteins were obtained. Heme oxygenase-1 expression was analyzed by Western blotting of the whole cell lysates. […] In FIG. 12, the first bar represents the control group, the second bar represents the test group with LPS only and the third, the fourth and fifth bars represent the test groups with 10, 25 and 50 […] Tellimagrandin II (N=3, Mean±SD).
# K-562 cells [2] = assay: ROS test (DCF-DA); format: cell-based, human; conditions: 40 μM; 2 hours
# Description: A radical specific fluorescent dye, 2′,7′-dichlorofluorescein (DCF-DA) was used to detect H2O2/NO-based radicals or O2— in cells respectively.
# A total of 3 mL cell solution at the concentration of 1×10^6 K-562 cells per mL was cultured with 6 cm cell culture plates in an incubator supplied with 5% CO2 at 37° C. for 30 minutes so that cells could adapt to the environment. Tellimagrandin II solutions of different concentrations were added by order so that the final concentrations are 0, 30, 40 and 50 μM respectively. The solution was placed in incubator with 5% CO2 at 37° C. for 2 hours before being centrifuged at 3,500 rpm at 4° C. for 5 minutes and then being rinsed by PBS once. 2′,7′-dichlorofluorescein (DCF-DA) was added before the solution was put into dark incubator for 45 minutes and then rinsed by PBS once again. Finally, 1 mL PBS was used to resuspend the cells before BD FACScan was used to detect the fluorescent signal.
# [3] = test system: mouse macrophage cell line RAW264.7; assay: Cell viability assay (alamarBlue); format: cell-based; conditions: 50 μg/mL or lower doses, 24 hours
# Description: AlamarBlue reagent was used to assess cell viability. RAW264.7 cells (2×10^4 in 200 μL of medium) were seeded on the 96-well plate. After overnight incubation, cells were serum starved in DMEM medium containing 2% Fetal Bovine Serum (FBS) for 3 hours. There were several groups: cells without DMSO or Tellimagrandin II treatment (controls); cell treated with DMSO (control); cells treated with Tellimagrandin II with different concentrations (10, 25, 50, 75 and 100 μM, diluted in DMSO) (test groups). Each group was determined in duplicate.
# After 24 hours, the cell medium was removed and discarded, and the cells were resuspended with 180 μL of fresh culture medium. Each cell suspension was added with 20 μL alamarBlue. The plate was then placed in incubator for another 4 hours. After incubation, the absorbance of the medium was measured at 570 and 600 nm, and cell viability was analyzed by using the following formula:
# [formula] • O1: molar extinction coefficient (E) of oxidized alamarBlue at 570 nm • O2: molar extinction coefficient (E) of oxidized alamarBlue at 600 nm • A1: absorbance of test wells at 570 nm • A2: absorbance of test wells at 600 nm • P1: absorbance of positive growth control well at 570 nm • P2: absorbance of positive growth control well at 600 nm
# DPPH scavenging assay = assay: DPPH scavenging assay
# Description: Test reagents, natural extracts and Vitamin C (ascorbic acid) were dissolved in methanol to make a stock solution 10×. Vitamin C was used as the positive control. 120 μM DPPH solution was prepared. Taken 20 μL of stock reagents, natural extracts and Vitamin C on a 96-well microplate, and methanol was added to make up to the total volume of 100 μL. Control was 100 μL methanol. Each sample was mixed with 100 μL DPPH solution and incubated in the dark for 40 minutes. DPPH level of each well was evaluated by detecting the optical density of each well at 517 nm and the results were shown in Table 5.
# K-562 cells [4] = assay: Western blotting of apoptosis and cell cycle proteins; format: cell-based, human; conditions: 40 and 50 μM, 48 hours
# Description: A total of 3 mL cell solution at the concentration of 1×10^6K-562 cells per mL was cultured in 6 cm cell culture dish in an incubator supplied with 5% CO2 at 37° C. for 30 minutes so that cells could adapt to the environment. Tellimagrandin II solutions of different concentrations were added by order so that the final concentrations are 0, 40 and 50 μM, respectively. The solution was placed in incubator with 5% CO2 at 37° C. for 48 hours. After incubation, it was centrifuged at 1,000 rpm at 4° C. for 5 minutes and rinsed by PBS once. RIPA buffer solution containing protease inhibitors was added to decompose the cells.
# The solution was rapidly frozen with liquid nitrogen and unfrozen for three times to ensure that cells had been broken by the physical damages. The solution was centrifuged at 15,000 rpm at 4° C. for 30 minutes; the supernatant containing total cell protein was collected. Protein concentrations were determined by BCA protein assay. Finally, equal amounts of protein samples (40 μg) were boiled in 1× loading buffer for 3 minutes to decompose protein into primary structure for further protein gel electrophoresis (or stored at −80° C.).
# SDS-PAGE 10% or 12% was selected by the desired protein molecular weight in the protein gel electrophoresis (150 V, 17 mA for 2 hour and 5 minutes). The protein was transferred from the gel to PVDF membrane using wet transfer procedure (100 V, 300 mA for 30 minutes). The membrane was blocked at room temperature for one hour in Tris-buffered saline-Tween (TBS-T) buffer solution containing 2% Bovine serum albumin (BSA) to eliminate non-specifically binding.
# PVDF membrane was probed with primary antibody diluted with by the recommended amount according the manufacture in 2% BSA-TBS-T buffer solution at 4° C. for 16 to 18 hours. After the interaction completed, TBS-T buffer solution was used to rinse out the non-specifically bound primary antibody. TBS-T buffer solution was changed every 10 minutes for three times in about 30 minutes. Then, specific secondary antibody was added for interaction at room temperature for one hour. TBS-T buffer solution was used to rinse out the non-specifically bound secondary antibody. TBS-T buffer solution was changed every 10 minutes for six times in about 60 minutes. ECL System (Enhanced chemiluminescence system) was used and film was exposed to light and developed. Finally qualitative analysis was performed. […] Protein related to cell cycle regulation includes G2/M checkpoint regulators, Cyclin B1 and Cdc-25C.
smiles,measurement,setting,value
O=C(OC1O[C@@H]2COC(=O)c3cc(O)c(O)c(O)c3-c3c(cc(O)c(O)c3O)C(=O)O[C@H]2[C@H](OC(=O)c2cc(O)c(O)c(O)c2)[C@H]1OC(=O)c1cc(O)c(O)c(O)c1)c1cc(O)c(O)c(O)c1 (stereo partly drawn) [Tellimagrandin II],Heme oxygenase-1 expression,[1],significant increases
same,ROS in K-562 cells,K-562 cells [2],observed to increase
same,Cell viability,[3],not affected significant
same,DPPH free-radical scavenging activity,"DPPH scavenging assay; 20 μg/mL, +FeCl2 (50 μM)",56.61 ± 4.05%
same,DPPH free-radical scavenging activity,"DPPH scavenging assay; 20 μg/mL, −FeCl2",80.52 ± 0.4%
same,DPPH free-radical scavenging activity,"DPPH scavenging assay; 40 μg/mL, +FeCl2 (50 μM)",57.43 ± 2.49%
same,DPPH free-radical scavenging activity,"DPPH scavenging assay; 40 μg/mL, −FeCl2",79.47 ± 0.2%
same,Caspase-8 (inactive form),K-562 cells [4],decreases
same,"Caspase-9, Caspase-3, and Caspase-7",K-562 cells [4],activation
same,Cyclin B1 and Cdc-25C (non-phosphorylated) activity,K-562 cells [4],decreased
same,PARP,K-562 cells [4],ultimate activation
same,protein of anti-apoptosis Bcl-2,K-562 cells [4],decrease
